Tests used:
Format in all cases: cell-based
[1] = tested on: mCherry-GAL9 expressing HEK293 cells; assay: GAL9 recruitment assay, HEK293; conditions: calculated mean from >3 independent exp.
Procedure: (§1) Experiments assessing GAL9 localization as an indicator for endosomal remodeling were performed as previously described[15] using 8× stablemCherry-GAL9 expressing cell lines, SHSY5Y, U2OS, 16HBE, NCI-H358, HuH7, HepG2, HEK293, and HeLa. For mCherry-GAL9 recruitment, 3,000 or 6,500 cells/well (depending upon cell line) were seeded into 384-well CellCarrier Ultra plates 24 h prior to treatment (PerkinElmer, catalog no. 6007558). An Echo 655T acoustic dispenser (Labcyte) was used for EEE dose-response preparation by transferring to the cell plate. At assay endpoints, cells were PBS washed, 4% paraformaldehyde fixed at room temperature […] (VWR, catalog no. 9713.1000), and nuclei stained with PBS +1 μg/mL Hoechst 33342 (Thermo Fisher Scientific, catalog no. H21492).
(§2) Imaging was performed using a spinning-disk confocal microscope (Yokogawa: CV8000) with a ×20w objective (numerical aperture 1.0). Cells and mCherry-GAL9 structure identification and quantification were done using Columbus image-analysis software (PerkinElmer version 2.9.0). Data processing was done using Spotfire (Tibco version 11.4) and Prism (GraphPad version 9.1.0). Image panels were assembled using the FigureJ plugin for FIJI.[43] All mCherry-GAL9 experiments were performed three times (N = 3) with duplicated wells per treatment (n = 2).

[2] = tested on: mCherry-GAL9 expressing HepG2 cells; assay: GAL9 recruitment assay, HepG2; conditions: calculated mean from >3 independent exp.
Procedure: as §1, §2

[3] = tested on: mCherry-GAL9 expressing HuH7 cells; assay: GAL9 recruitment assay, HuH7; conditions: calculated mean from >3 independent exp.
Procedure: as §1, §2

[4] = tested on: mCherry-GAL9 expressing U2OS cells; assay: GAL9 recruitment assay, U2OS; conditions: calculated mean from >3 independent exp.
Procedure: as §1, §2

[5] = tested on: HeLa_Luc705 cells (pLuc/705 splice-switching reporter); assay: Functional 705-SSO delivery, luciferase splice-switching assay; conditions: HeLa-Luc705 + 2 µM SSO; EEE 2.5 - 3 µM; mean from >3 independent experiments
Text: Therefore, next, we functionally screened the SSO delivery in the HeLa_Luc705 reporter cell line. HeLa_Luc705 carries a pLuc/705 splice-switching reporter luciferase gene interrupted by a mutated β-globin intron, which creates a preferentially used cryptic 5′ splice site leading to aberrant splicing. Functional SSO delivery masks the cryptic site, redirecting the splicing machinery to the right splicing site, allowing the measurement of luciferase expression (Figure S1).[25]^,[26]^,[27]^,[28] We used SSO transfection with LF2000 as transfection control and the previously published endosomal escape enhancer CMP05 (here, EEE2) as positive control.[15]
For the assessment of functional SSO therapeutics, a HeLa_Luc705 cell line was grown in DMEM media supplemented with 10% fetal bovine serum (FBS). For most treatments, 10,000 cells/well were seeded in a 96-well plate, 24 h pre-incubated with 1- to 2-μM oligonucleotide, and then treated at the described EEE concentration. At 24 h post-treatment, cells were PBS rinsed and collected for further analysis (treatments and incubation times changed accordingly to the experiment design). Luciferase readout was performed as previously described,[15] using a GloMax 96-well plate microplate luminometer (Promega) immediately after adding 30 μL auto-injected luciferin substrate (Promega Firefly Luciferase Assay System; Thermo Scientific, catalog no. 16174) in a white-walled 96-well plate containing 30 μL 0.1% Triton X-100 (Sigma-Aldrich) cell lysed. Photon exposure time and delay were set to 10 and 2 s after injection. LF2000 was used as the transfection reagent control (Thermo Scientific, catalog no. 11668019). For EEE experiments using 1 or 2 μM SSOs, the control was prepared using lipofection with 100–200 nM SSO; this is to avoid complex induced cell toxicity.
705-SSO was purchased from and synthesized by Integrated DNA Technologies. The 705-SSO sequence was previously published, containing 2′-O-methylated bases and only phosphorothioate-saturated backbone linkages were included.[15] The 705-SSO was high-performance liquid chromatography purified, shipped, and stored in IDTE buffer (10 mM Tris, 0.1 mM EDTA).

[6] = tested on: mCherry-GAL9 expressing HeLa cells; assay: GAL9 recruitment assay, HeLa; conditions: calculated mean from >3 independent exp.
Procedure: as §1, §2

[7] = tested on: mCherry-GAL9 expressing 16HBE cells; assay: GAL9 recruitment assay, 16HBE; conditions: calculated mean from >3 independent exp.
Procedure: as §1, §2

[8] = tested on: mCherry-GAL9 expressing NCI-H358 cells; assay: GAL9 recruitment assay, NCI-H358; conditions: calculated mean from >3 independent exp.
Procedure: as §1, §2

[9] = tested on: mCherry-GAL9 expressing SHSY5Y cells; assay: GAL9 recruitment assay, SHSY5Y; conditions: calculated mean from >3 independent exp.
Procedure: as §1, §2

Compound: CCN1CCC(n2cc(Nc3ncc(F)c(-n4ccc5c(C#N)cccc54)n3)c(OC)n2)CC1 [EEE11]
- Gal9 response compared to reference ([1]; EEE 0.31 µM): 0.027
- Gal9 response compared to reference ([1]; EEE 0.62 µM): 0.022
- Gal9 response compared to reference ([1]; EEE 1.25 µM): 0.106
- Gal9 response compared to reference ([1]; EEE 2.5 µM): 0.438
- Gal9 response compared to reference ([1]; EEE 5 µM): 0.779
- Gal9 response compared to reference ([1]; EEE 10 µM): 0.493
- Gal9 response compared to reference ([2]; EEE 0.31 µM): 0.009
- Gal9 response compared to reference ([2]; EEE 0.62 µM): 0.008
- Gal9 response compared to reference ([2]; EEE 1.25 µM): 0.007
- Gal9 response compared to reference ([2]; EEE 2.5 µM): 0.019
- Gal9 response compared to reference ([2]; EEE 5 µM): 0.163
- Gal9 response compared to reference ([2]; EEE 10 µM): 0.568
- Gal9 response compared to reference ([3]; EEE 0.31 µM): 0.009
- Gal9 response compared to reference ([3]; EEE 0.62 µM): 0.008
- Gal9 response compared to reference ([3]; EEE 1.25 µM): 0.023
- Gal9 response compared to reference ([3]; EEE 2.5 µM): 0.154
- Gal9 response compared to reference ([3]; EEE 5 µM): 0.258
- Gal9 response compared to reference ([3]; EEE 10 µM): 0.222
- Gal9 response compared to reference ([4]; EEE 0.31 µM): 0.012
- Gal9 response compared to reference ([4]; EEE 0.62 µM): 0.015
- Gal9 response compared to reference ([4]; EEE 1.25 µM): 0.018
- Gal9 response compared to reference ([4]; EEE 2.5 µM): 0.048
- Gal9 response compared to reference ([4]; EEE 5 µM): 0.317
- Gal9 response compared to reference ([4]; EEE 10 µM): 0.483
- Luciferase expression compared to reference [5]: 2.093
- Gal9 response compared to reference ([6]; EEE 0.31 µM): 0.005
- Gal9 response compared to reference ([6]; EEE 0.62 µM): 0.004
- Gal9 response compared to reference ([6]; EEE 1.25 µM): 0.013
- Gal9 response compared to reference ([6]; EEE 2.5 µM): 0.253
- Gal9 response compared to reference ([6]; EEE 5 µM): 0.553
- Gal9 response compared to reference ([6]; EEE 10 µM): 0.370
- Gal9 response compared to reference ([7]; EEE 0.31 µM): 0.013
- Gal9 response compared to reference ([7]; EEE 0.62 µM): 0.013
- Gal9 response compared to reference ([7]; EEE 1.25 µM): 0.056
- Gal9 response compared to reference ([7]; EEE 2.5 µM): 0.167
- Gal9 response compared to reference ([7]; EEE 5 µM): 0.507
- Gal9 response compared to reference ([7]; EEE 10 µM): 0.623
- Gal9 response compared to reference ([8]; EEE 0.31 µM): 0.016
- Gal9 response compared to reference ([8]; EEE 0.62 µM): 0.020
- Gal9 response compared to reference ([8]; EEE 1.25 µM): 0.036
- Gal9 response compared to reference ([8]; EEE 2.5 µM): 0.143
- Gal9 response compared to reference ([8]; EEE 5 µM): 0.614
- Gal9 response compared to reference ([8]; EEE 10 µM): 0.576
- Gal9 response compared to reference ([9]; EEE 0.31 µM): 0.014
- Gal9 response compared to reference ([9]; EEE 0.62 µM): 0.018
- Gal9 response compared to reference ([9]; EEE 1.25 µM): 0.385
- Gal9 response compared to reference ([9]; EEE 2.5 µM): 0.801
- Gal9 response compared to reference ([9]; EEE 5 µM): 0.691
- Gal9 response compared to reference ([9]; EEE 10 µM): 0.469
